Assay results from paper PMC8617627, “Novel DYRK1A Inhibitor Rescues Learning and Memory Deficits in a Mouse Model of Down Syndrome” (Pharmaceuticals, 2021).
Like-named read-outs stand apart in the source and are kept apart here.

What was measured:
Experiment in all cases: Kinase profile (33P ATP filter binding)
Format in all cases: biochemical
EPH-B2 = target: T1, EPH-B2 (Homo sapiens, UniProt P29323)
T1 sequence (P29323 19-1055): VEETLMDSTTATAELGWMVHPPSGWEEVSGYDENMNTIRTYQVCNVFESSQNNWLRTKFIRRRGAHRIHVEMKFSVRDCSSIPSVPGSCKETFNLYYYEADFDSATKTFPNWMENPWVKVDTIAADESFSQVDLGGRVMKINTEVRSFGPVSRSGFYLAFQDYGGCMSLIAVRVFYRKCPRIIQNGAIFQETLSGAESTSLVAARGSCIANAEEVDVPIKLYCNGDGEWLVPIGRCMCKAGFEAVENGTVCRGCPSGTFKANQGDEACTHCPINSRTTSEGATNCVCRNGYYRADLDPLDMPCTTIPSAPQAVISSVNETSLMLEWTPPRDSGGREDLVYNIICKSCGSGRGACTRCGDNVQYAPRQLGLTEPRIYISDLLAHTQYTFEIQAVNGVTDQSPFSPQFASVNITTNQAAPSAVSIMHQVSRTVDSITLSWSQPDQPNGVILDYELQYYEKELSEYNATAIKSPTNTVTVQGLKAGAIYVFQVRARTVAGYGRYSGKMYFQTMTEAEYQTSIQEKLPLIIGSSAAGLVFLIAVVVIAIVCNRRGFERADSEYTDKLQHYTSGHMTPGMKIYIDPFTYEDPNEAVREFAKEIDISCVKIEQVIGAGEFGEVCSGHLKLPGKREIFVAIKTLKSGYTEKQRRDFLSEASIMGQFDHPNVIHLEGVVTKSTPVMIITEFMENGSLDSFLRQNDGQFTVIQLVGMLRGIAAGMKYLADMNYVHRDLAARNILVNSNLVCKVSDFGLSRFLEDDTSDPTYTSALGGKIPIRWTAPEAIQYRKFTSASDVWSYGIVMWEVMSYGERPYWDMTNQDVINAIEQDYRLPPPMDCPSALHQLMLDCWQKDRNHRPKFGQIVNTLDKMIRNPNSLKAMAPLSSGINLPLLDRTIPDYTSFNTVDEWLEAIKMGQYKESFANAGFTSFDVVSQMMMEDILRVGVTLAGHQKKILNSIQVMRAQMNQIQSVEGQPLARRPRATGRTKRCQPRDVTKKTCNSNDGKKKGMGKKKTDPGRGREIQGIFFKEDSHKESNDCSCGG

GCK = target: T2, GCK (Homo sapiens, UniProt Q12851); settings: read-out: Remaining protein kinase activity
T2 sequence (Q12851 1-820): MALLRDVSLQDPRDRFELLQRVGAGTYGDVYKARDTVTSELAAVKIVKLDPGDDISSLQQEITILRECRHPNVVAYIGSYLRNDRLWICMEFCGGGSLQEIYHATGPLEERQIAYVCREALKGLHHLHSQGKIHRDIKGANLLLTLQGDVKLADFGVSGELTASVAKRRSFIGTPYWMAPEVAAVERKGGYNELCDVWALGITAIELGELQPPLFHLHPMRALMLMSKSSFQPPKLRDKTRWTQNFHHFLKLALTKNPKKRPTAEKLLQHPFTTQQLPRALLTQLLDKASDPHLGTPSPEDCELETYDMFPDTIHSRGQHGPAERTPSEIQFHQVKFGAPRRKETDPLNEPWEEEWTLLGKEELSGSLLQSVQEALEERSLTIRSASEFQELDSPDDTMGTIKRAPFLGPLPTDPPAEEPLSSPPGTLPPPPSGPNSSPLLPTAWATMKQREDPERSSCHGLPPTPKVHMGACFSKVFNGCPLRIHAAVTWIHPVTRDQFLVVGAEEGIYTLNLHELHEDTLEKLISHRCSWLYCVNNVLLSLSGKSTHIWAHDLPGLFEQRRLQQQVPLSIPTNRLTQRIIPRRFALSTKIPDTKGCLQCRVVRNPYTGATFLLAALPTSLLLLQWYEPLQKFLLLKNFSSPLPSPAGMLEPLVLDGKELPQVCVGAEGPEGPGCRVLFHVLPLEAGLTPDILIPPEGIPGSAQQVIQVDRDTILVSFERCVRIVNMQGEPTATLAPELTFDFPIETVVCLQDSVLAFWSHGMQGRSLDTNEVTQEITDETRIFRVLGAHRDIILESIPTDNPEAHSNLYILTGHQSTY

PRAK = target: T3, PRAK (Homo sapiens, UniProt Q8IW41); settings: read-out: Remaining protein kinase activity
T3 sequence (Q8IW41 1-473): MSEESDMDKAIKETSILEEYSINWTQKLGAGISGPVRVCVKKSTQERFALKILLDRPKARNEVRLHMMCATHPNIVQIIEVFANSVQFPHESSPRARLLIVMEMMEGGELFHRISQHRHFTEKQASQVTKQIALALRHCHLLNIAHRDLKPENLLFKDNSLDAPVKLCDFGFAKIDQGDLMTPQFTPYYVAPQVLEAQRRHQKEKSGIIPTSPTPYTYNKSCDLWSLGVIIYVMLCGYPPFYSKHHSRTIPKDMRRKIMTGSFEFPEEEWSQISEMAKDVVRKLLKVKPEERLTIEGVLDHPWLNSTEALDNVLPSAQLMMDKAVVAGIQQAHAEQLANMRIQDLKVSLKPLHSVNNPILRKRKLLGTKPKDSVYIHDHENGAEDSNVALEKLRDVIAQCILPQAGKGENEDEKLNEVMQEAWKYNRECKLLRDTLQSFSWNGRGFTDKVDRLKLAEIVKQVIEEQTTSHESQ

ERK1 = ERK1 (Homo sapiens, UniProt P27361); settings: read-out: Remaining protein kinase activity
ERK5 = ERK5 (Homo sapiens, UniProt Q13164); settings: read-out: Remaining protein kinase activity
ERK5, sequence (Q13164 whole entry, species assumed): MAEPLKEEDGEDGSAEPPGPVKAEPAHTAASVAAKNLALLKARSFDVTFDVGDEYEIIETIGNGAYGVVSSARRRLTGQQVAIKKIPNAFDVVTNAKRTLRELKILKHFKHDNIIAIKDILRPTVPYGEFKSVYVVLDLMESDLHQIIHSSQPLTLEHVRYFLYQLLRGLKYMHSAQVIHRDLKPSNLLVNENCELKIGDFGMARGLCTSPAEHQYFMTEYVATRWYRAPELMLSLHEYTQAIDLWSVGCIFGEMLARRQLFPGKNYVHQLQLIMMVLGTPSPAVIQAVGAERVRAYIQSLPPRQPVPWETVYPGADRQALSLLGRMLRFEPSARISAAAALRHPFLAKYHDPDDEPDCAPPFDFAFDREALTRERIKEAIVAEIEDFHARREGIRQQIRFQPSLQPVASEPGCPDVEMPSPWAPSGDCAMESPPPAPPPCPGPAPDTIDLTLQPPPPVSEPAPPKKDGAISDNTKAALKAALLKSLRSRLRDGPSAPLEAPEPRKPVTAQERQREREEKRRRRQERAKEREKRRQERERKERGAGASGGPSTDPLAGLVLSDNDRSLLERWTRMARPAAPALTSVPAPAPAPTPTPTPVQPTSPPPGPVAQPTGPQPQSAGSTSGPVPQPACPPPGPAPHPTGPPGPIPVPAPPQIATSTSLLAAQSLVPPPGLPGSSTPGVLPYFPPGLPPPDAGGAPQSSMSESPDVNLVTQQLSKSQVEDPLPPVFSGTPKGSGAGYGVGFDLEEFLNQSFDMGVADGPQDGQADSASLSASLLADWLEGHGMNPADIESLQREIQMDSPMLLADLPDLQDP

ERK1, sequence (P27361 whole entry, species assumed): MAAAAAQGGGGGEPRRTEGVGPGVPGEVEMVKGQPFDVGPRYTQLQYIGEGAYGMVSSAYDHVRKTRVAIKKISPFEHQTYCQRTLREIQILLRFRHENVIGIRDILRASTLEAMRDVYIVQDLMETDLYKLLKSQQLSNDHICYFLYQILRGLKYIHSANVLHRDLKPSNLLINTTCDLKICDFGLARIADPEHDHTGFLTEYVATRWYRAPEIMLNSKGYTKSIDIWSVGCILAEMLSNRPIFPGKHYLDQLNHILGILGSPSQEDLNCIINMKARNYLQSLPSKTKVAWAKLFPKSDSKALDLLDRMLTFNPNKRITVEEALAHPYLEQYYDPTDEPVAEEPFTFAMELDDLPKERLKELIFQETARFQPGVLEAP

SMILES | Remaining protein kinase activity (EPH-B2; 1 μM) [%] | Remaining protein kinase activity (EPH-B2; 100 μM) [%] | remaining activity at 1 µM (GCK; GCK, 1 μM) [%] | remaining activity at 100 µM (GCK; GCK, 100 μM) [%] | remaining activity at 1 µM (PRAK; PRAK, 1 μM) [%] | remaining activity at 100 µM (PRAK; PRAK, 100 μM) [%] | remaining activity at 1 µM (ERK1; ERK1, 1 μM) [%] | remaining activity at 100 µM (ERK1; ERK1, 100 μM) [%] | remaining activity at 1 µM (ERK5; ERK5, 1 μM) [%] | remaining activity at 100 µM (ERK5; ERK5, 100 μM) [%] | remaining activity at 1 µM (GCK) [%] | remaining activity at 100 µM (GCK) [%] | remaining activity at 1 µM (PRAK) [%] | remaining activity at 100 µM (PRAK) [%] | remaining activity at 1 µM (ERK1) [%] | remaining activity at 100 µM (ERK1) [%] | remaining activity at 1 µM (ERK5) [%] | remaining activity at 100 µM (ERK5) [%]
COc1ccc2sc(-c3cncc(N)c3)nc2c1 [compound 1, 5-(5-Methoxybenzo[d]thiazol-2-yl)pyridin-3-amine] | 136 | 96 | 105 | 28 | 128 | 36 | 99 | 81 | 66 | 37 | – | – | – | – | – | – | – | –
COc1ccc2sc(-c3cncc(NC(C)=O)c3)nc2c1 [PST-001, N-(5-(5-Methoxybenzo[d]thiazol-2-yl)pyridin-3-yl)acetamide] | 137 | 125 | – | – | – | – | – | – | – | – | 118 | 123 | 114 | 116 | 109 | 108 | 72 | 51
